Results: US8026258B2, “Aryloxyalkylcarbamate-type derivatives, preparation method thereof and use of same in therapeutics” (Sanofi-Aventis, priority 2004, dated 2011)

How the values were obtained:
[1] = system: male OF1 mice; experiment: Analgesia test: PBQ (phenylbenzoquinone)-induced abdominal stretches; assay type: in vivo, mouse; conditions: oral, dose of 1 mg/kg, at 2 hours, PBQ 2 mg/kg i.p.
Protocol: The in vivo activity of the compounds of the invention was evaluated in an analgesia test.
Accordingly, intraperitoneal (i.p.) administration of PBQ (phenylbenzoquinone, 2 mg/kg in a 0.9% sodium chloride solution containing 5% of ethanol) to male OF1 mice weighing 25 to 30 g causes abdominal stretches, on average 30 twists or contractions during the period from 5 to 15 minutes after injection. The test compounds are administered orally in suspension in Tween 80 at 0.5%, 60 minutes or 120 minutes before the administration of PBQ. […] For example, compound 58 of the table reduces by 51% the number of stretches induced by PBQ, at a dose of 1 mg/kg at 2 hours.

[2] = molecular target: T1, FAAH (Fatty Acid Amide Hydrolase) (Mus musculus, UniProt O08914); experiment: Radioenzymatic FAAH inhibition assay (hydrolysis of anandamide [ethanolamine 1-3H]) in mouse brain membrane homogenates; assay type: biochemical; conditions: mouse brain membrane homogenate; anandamide 10 μM; 15 minutes at 25° C.; read-out: IC50 (concentration inhibiting by 50% the control enzyme activity of FAAH)
T1 construct: Membrane homogenates are prepared at the time of use by homogenizing the tissues in a Polytron; from tissue; host or cells: mouse brain (minus the cerebellum), membrane homogenate
T1 sequence (O08914 1-579): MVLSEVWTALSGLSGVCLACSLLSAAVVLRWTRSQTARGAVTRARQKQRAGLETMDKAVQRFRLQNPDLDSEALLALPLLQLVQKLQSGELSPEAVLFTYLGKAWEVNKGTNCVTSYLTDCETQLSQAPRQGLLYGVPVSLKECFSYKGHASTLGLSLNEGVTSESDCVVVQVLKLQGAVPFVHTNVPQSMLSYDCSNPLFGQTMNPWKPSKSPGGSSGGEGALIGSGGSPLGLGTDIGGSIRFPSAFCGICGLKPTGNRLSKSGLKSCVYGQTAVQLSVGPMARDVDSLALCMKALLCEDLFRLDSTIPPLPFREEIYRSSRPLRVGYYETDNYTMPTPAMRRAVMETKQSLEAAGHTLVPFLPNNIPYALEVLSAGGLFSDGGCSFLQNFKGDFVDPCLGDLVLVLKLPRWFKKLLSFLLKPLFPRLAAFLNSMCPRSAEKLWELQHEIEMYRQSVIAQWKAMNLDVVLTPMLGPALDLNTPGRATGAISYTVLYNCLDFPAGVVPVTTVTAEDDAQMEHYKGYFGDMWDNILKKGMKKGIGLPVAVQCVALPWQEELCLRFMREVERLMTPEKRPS
Protocol: The compounds of the invention were subjected to pharmacological tests permitting determination of their inhibitory effect on the enzyme FAAH (Fatty Acid Amide Hydrolase).
Accordingly, mouse brains (minus the cerebellum) are removed and stored at −80° C. Membrane homogenates are prepared at the time of use by homogenizing the tissues in a Polytron in a 10 mM Tris-HCl buffer (pH 8.0) containing 150 mM NaCl and 1 mM EDTA. The enzyme reaction is subsequently conducted in 70 μl of buffer containing bovine serum albumin without fatty acids (1 mg/ml). In succession, the test compounds, at various concentrations, anandamide [ethanolamine 1-^3H] (specific activity: 15-20 Ci/mmol) diluted to 10 μM with cold anandamide, and the membrane preparation (400 μg of frozen tissue per assay) are added. After 15 minutes at 25° C. the enzyme reaction is terminated by adding 140 μl of chloroform/methanol (2:1). The mixture is stirred for 10 minutes and then centrifuged for 15 minutes at 3500 g. An aliquot (30 μl) of the aqueous phase containing the ethanolamine [1-^3H] is counted by liquid scintillation.

Row | SMILES | melting point | reduction of the number of stretches induced by PBQ [1] | IC50 [2]
1 | CNC(=O)COC(=O)NCCOc1ccc(Cl)cc1 [Compound 1, 2-(methylamino)-2-oxoethyl{2-[(4-chlorophenyl)-oxy]ethyl}carbamate] | 147 to 149 °C |  | 
2 | N#Cc1ccc(OCCNC(=O)OCC(N)=O)cc1 [Compound 11, 2-amino-2-oxoethyl (2-[(4-cyanophenyl)oxy]ethyl)-carbamate] | 204 to 206 °C |  | 
3 | NC(=O)COC(=O)NCCCCOc1cccc2ccccc12 [Compound 58, 2-amino-2-oxoethyl [4-(1-naphthalenyloxy]butyl]-carbamate] | 80 to 82 °C | 51% | 470 nM
4 | NC(=O)COC(=O)N1CCC(COc2cccc3ccccc23)C1 (centres unmarked) [Compound 83, 2-amino-2-oxoethyl 3-[(1-naphthalenyloxy)methyl]-1-pyrrolidinecarboxylate] | 161 to 163 °C |  | 
5 | CNC(=O)COC(=O)N1CCC(Oc2ccc(-c3ccc(F)cc3)cc2)CC1 [Compound 85, 2-(methylamino)-2-oxoethyl 4-[(4′-fluoro-4-biphenyl)-oxy]-1-piperidinecarboxylate] | 117 to 119 °C |  | 
6 | CNC(=O)COC(=O)N1CCC(COc2ccc(Br)cc2)CC1 [Compound 120, 2-(methylamino)-2-oxoethyl 4-{[(4-bromophenyl)oxy]-methyl}-1-piperidinecarboxylate] | 163 to 165 °C |  | 
7 | NC(=O)COC(=O)N1CCC(COc2cccc3ccccc23)CC1 [Compound 137, 2-amino-2-oxoethyl 4-[(1-naphthalenyloxy)methyl]-1-piperidinecarboxylate] | 135 to 136 °C |  | 
8 | NC(=O)COC(=O)N1CCC(COc2ccc3cccnc3c2)CC1 [Compound 148, 2-amino-2-oxoethyl 4-[(7-quinolinyloxy)methyl]-1-piperidinecarboxylate] | 137 to 139 °C |  | 
9 | CNC(=O)COC(=O)N1CCC(COc2ccc(-c3ccc(C(F)(F)F)cc3)cc2)CC1 [Compound 154, 2-(methylamino)-2-oxoethyl 4-{[(4′-(trifluoromethyl)-4-biphenyl)oxy]methyl}-1-piperidinecarboxylate] | 197 to 199 °C |  | 
10 | CNC(=O)COC(=O)N1CCC(CCOc2ccc(Br)cc2)CC1 [Compound 168, 2-(methylamino)-2-oxoethyl 4-{2-[(4-bromophenyl)-oxy]ethyl}-1-piperidinecarboxylate] | 101 to 103 °C |  | 
11 | NC(=O)COC(=O)N1CCC(CCOc2ccc3ccncc3c2)CC1 [Compound 183, 2-amino-2-oxoethyl 4-[2-(7-isoquinolinyloxy)ethyl]-1-piperidinecarbamate] | 179 to 181 °C |  | 
12 | CNC(=O)COC(=O)N1CCC(CCOc2ccc(-c3ccc(Cl)cc3)cc2)CC1 [Compound 186, 2-(methylamino)-2-oxoethyl 4-{2-[(4′-chloro-4-biphenyl)oxy]ethyl}-1-piperidinecarboxylate] | 104 to 106 °C |  | 
